Experiment in all cases: NCI tumour cell line growth inhibition, 48 h
For test [1], the system named is HCT-15 colon.
Test [2] deals with M14 melanoma.
The subject of test [3] is PC-3 prostate.
The test system of test [4] is RPMI-8226 leukemia.
Test [5] relates to SK-OV-3 ovarian.
In test [6] the test system is SW-620 colon.
The test system of test [7] is U251 CNS.
The subject of test [8] is LOX IMVI melanoma.
The test system of test [9] is T-47D breast.
The test system of test [10] is HL-60(TB) leukemia.

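Interpolation was linear, between the two tested concentrations surrounding the appropriate level; five concentrations were tested over 48 hours in 96-well plates. TGI marks complete inhibition of growth.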

On to `S=c1oc(CCCCCCCCc2nn(CNc3ccc(Cl)cc3)c(=S)o2)nn1CNc1ccc(Cl)cc1`, for which the TGI in test [1], in [2], in test [3], in test [4], in test [5] and in test [6] was greater than 100 µM in each case. Moreover, the TGI in [7] was greater than 100 µM.
Turning to `Cc1cc2nc3c(N)nn(CCN(C)C)c3nc2cc1C`, the TGI in [1] was greater than 100 µM; in test [8], 76.2 µM; in test [2] it was greater than 100 µM; in test [3] it was greater than 100 µM; in test [4] it was greater than 100 µM; in test [5], greater than 100 µM. The TGI in test [6], in [9] and in [7] was greater than 100 µM each time.
Turning to `C/C=C\C(CC(=O)NCCc1c[nH]c2ccccc12)CC(=O)OC` (stereo not drawn), the TGI in test [1], in test [2], in test [3], in [4], in test [5] and in test [6] was greater than 100 µM in each case. The TGI in [9] and in [7] was greater than 100 µM each time.
In the case of `O=C(O)Cn1ncn(NC(=O)Cc2ccccc2)c1=S`, the TGI in [1], in test [8], in [2], in test [3], in [4] and in [5] was greater than 10 µM in each case. The TGI in test [6], in test [9] and in test [7] was greater than 10 µM throughout.
In the case of `Cc1cccc(=O)c([O-])c1.Cc1cccc(=O)c([O-])c1.Cc1cccc(=O)c([O-])c1.Cc1cccc(=O)c([O-])c1.[Th+4]`, the TGI is greater than 100 µM in test [1]; 4.18 µM in [10]; greater than 100 µM in [8]; 42.1 µM in test [2]; greater than 100 µM in [4]; greater than 100 µM in [5]. Also, the TGI in test [6] and in test [7] was greater than 100 µM throughout.
Turning to `Cc1cc(C)c(C#N)c(SC(=S)NC(=O)c2ccccc2)n1`, the TGI in test [1], in [2], in [3], in test [4], in test [6] and in test [9] was greater than 100 µM each time. Moreover, the TGI in test [7] is greater than 100 µM.
Take `Oc1ccc(O)c(Sc2nnc(CCCCCCCCc3nnc(Sc4cc(O)ccc4O)o3)o2)c1`: the TGI in [1], in test [2], in test [3], in test [4], in test [5] and in test [6] was greater than 100 µM each time. Moreover, the TGI in test [7] was greater than 100 µM.
As to `COC(C/C=C\C=C\CC/C=C/CC(C)/C=C/C(=C\C(=O)O)CC(=O)O)/C(C)=C\C=C(/C)C(=O)O` (stereo not drawn), the TGI in test [1], in test [2], in test [3], in test [4], in [5] and in test [6] was greater than 100 µM throughout. Moreover, the TGI in test [7] was greater than 100 µM.
Turning to `O=C(O)c1cc(Nc2c(O)c3c(c(O)c2Cl)C(=O)C=CC3=O)ccc1O`, the TGI in test [1], in test [8], in test [2], in test [3], in test [5] and in test [6] was greater than 10 µM in each case. Also, the TGI in test [9] and in test [7] was greater than 10 µM each time.
Turning to `COc1ccc(Nc2nc(NNC(=O)Cc3ccccc3)nc(NNC(=O)c3ccncc3)n2)cc1`, the TGI in test [1], in test [8], in [2], in test [5], in test [6] and in [9] was greater than 10 µM in each case. Moreover, the TGI in [7] is greater than 10 µM.
On to `CC(=O)c1cc(S(=O)(=O)c2ccc(O)c(C(C)=O)c2)ccc1O`, for which the TGI in test [1], in [8], in test [2], in test [3], in test [4] and in test [5] was greater than 100 µM in each case. For the same compound, the TGI in [6], in test [9] and in [7] was greater than 100 µM throughout.
With `COc1ccc(C[C@H]2COC(=O)[C@@H]2Cc2ccccc2)cc1OC`, the TGI in test [8], in test [3], in test [4], in test [5], in test [6] and in test [9] was greater than 100 µM throughout. In test [7], this compound showed a TGI greater than 100 µM.
As to `COc1ccc2c3c([nH]c2c1)-c1nc2ccccc2c(=O)n1CC3`, the TGI in test [1], in [10], in test [2], in test [3], in test [4] and in test [5] was greater than 25 µM throughout. Moreover, the TGI in test [6], in test [9] and in [7] was greater than 25 µM in each case.
As to `Cc1cc(=O)[nH]c(NN2C(Cl)C(=O)C2c2ccco2)n1` (stereo not drawn), the TGI in test [1] is greater than 100 µM; in test [10], 39.3 µM; in [8], greater than 100 µM; in [2], greater than 100 µM; in test [4] it was 38.3 µM; in [6], greater than 100 µM. Also, in test [7], the TGI is greater than 100 µM.
With `Cc1ccc(Cl)c2c(=O)cc(-c3ccccc3)[nH]c12`, the TGI in [1], in [10], in [8], in [2], in test [4] and in test [5] was greater than 100 µM in each case. The TGI in [6] and in [7] was greater than 100 µM throughout.
For the compound `O=c1oc2ccccc2c(O)c1C(c1ccc(O)cc1)c1c(O)c2ccccc2oc1=O`, the TGI in test [1], in [8], in test [3], in test [6], in [9] and in [7] was greater than 100 µM throughout.

The values are drawn from PubChem BioAssay (NCI).
